{"source": "paper PMC11822212", "about": "“High-throughput screening identifies Aurora kinase B as a critical therapeutic target for Merkel cell carcinoma” (Nature Communications, 2025)", "key": {"UISO cells (VN-MCC)": {"test_system": "UISO cells (VN-MCC)", "experiment": "qHTS cell viability (CellTiter-Glo, 72 h; primary and follow-up small molecule screen)", "format": "cell-based, human"}, "MCC13 cells (VN-MCC)": {"test_system": "MCC13 cells (VN-MCC)", "experiment": "qHTS cell viability (CellTiter-Glo, 72 h; primary and follow-up small molecule screen)", "format": "cell-based, human"}, "WAGA cells (VP-MCC)": {"test_system": "WAGA cells (VP-MCC)", "experiment": "qHTS cell viability (CellTiter-Glo, 72 h; primary and follow-up small molecule screen)", "format": "cell-based, human"}, "[1]": {"test_system": "six MCC cell lines and four control cell lines", "experiment": "qHTS cell viability, all 10 cell lines screened", "format": "cell-based"}, "HEK293T cells": {"test_system": "HEK293T cells", "experiment": "qHTS cell viability (CellTiter-Glo, 72 h; primary screen), control cell line", "format": "cell-based, human"}, "[2]": {"test_system": "control cell lines (HACAT, HEK293T, CRL-7250, NIH-3T3)", "experiment": "qHTS cell viability, control cell lines as a group (mean AUC, Control.avg)", "format": "cell-based"}, "MKL-2 cells (VP-MCC)": {"test_system": "MKL-2 cells (VP-MCC)", "experiment": "qHTS cell viability (CellTiter-Glo, 72 h; primary and follow-up small molecule screen)", "format": "cell-based, human"}, "[3]": {"test_system": "VP-MCC cell lines (WAGA, MKL-1, MKL-2)", "experiment": "qHTS cell viability, VP-MCC cell lines as a group (mean AUC, VP.MCC.avg)", "format": "cell-based, human"}, "CRL-7250 cells": {"test_system": "CRL-7250 cells", "experiment": "qHTS cell viability (CellTiter-Glo, 72 h; primary screen), control cell line", "format": "cell-based"}, "[4]": {"test_system": "MCC cell lines (WAGA, MKL-1, MKL-2, MCC13, MCC26, UISO)", "experiment": "qHTS cell viability, all six MCC cell lines as a group (mean AUC, MCC.avg)", "format": "cell-based, human"}, "HACAT cells": {"test_system": "HACAT cells", "experiment": "qHTS cell viability (CellTiter-Glo, 72 h; primary screen), control cell line", "format": "cell-based, human"}, "NIH-3T3 cells": {"test_system": "NIH-3T3 cells", "experiment": "qHTS cell viability (CellTiter-Glo, 72 h; primary screen), control cell line", "format": "cell-based, mouse"}, "MKL-1 cells (VP-MCC)": {"test_system": "MKL-1 cells (VP-MCC)", "experiment": "qHTS cell viability (CellTiter-Glo, 72 h; primary and follow-up small molecule screen)", "format": "cell-based, human"}, "MCC26 cells (VN-MCC)": {"test_system": "MCC26 cells (VN-MCC)", "experiment": "qHTS cell viability (CellTiter-Glo, 72 h; primary and follow-up small molecule screen)", "format": "cell-based, human"}, "[5]": {"test_system": "VN-MCC cell lines (MCC13, MCC26, UISO)", "experiment": "qHTS cell viability, VN-MCC cell lines as a group (mean AUC, VN.MCC.avg)", "format": "cell-based, human"}}, "note": "Like-named read-outs stand apart in the source and are kept apart here.", "data": [{"smiles": "CN(C)C(=O)Nc1ccc(Cl)c(Cl)c1", "note": "[Diuron]", "values": [{"measurement": "Area under the dose-response curve (AUC) UISO Replicate 1", "setting": "UISO cells (VN-MCC)", "value": 424.2}, {"measurement": "Area under the dose-response curve (AUC) UISO Replicate 2", "setting": "UISO cells (VN-MCC)", "value": 442.5}, {"measurement": "Area under the dose-response curve (AUC) UISO Replicate 3", "setting": "UISO cells (VN-MCC)", "value": 396.8}, {"measurement": "UISO_AUC", "setting": "UISO cells (VN-MCC)", "value": 432.63}, {"measurement": "Area under the dose-response curve (AUC) MCC13 Replicate 1", "setting": "MCC13 cells (VN-MCC)", "value": 429.4}, {"measurement": "Area under the dose-response curve (AUC) MCC13 Replicate 2", "setting": "MCC13 cells (VN-MCC)", "value": 471.6}, {"measurement": "Area under the dose-response curve (AUC) MCC13 Replicate 3", "setting": "MCC13 cells (VN-MCC)", "value": 443.0}, {"measurement": "MCC13_AUC", "setting": "MCC13 cells (VN-MCC)", "value": 486.707}, {"measurement": "Area under the dose-response curve (AUC) WAGA Replicate 1", "setting": "WAGA cells (VP-MCC)", "value": 487.4}, {"measurement": "Area under the dose-response curve (AUC) WAGA Replicate 2", "setting": "WAGA cells (VP-MCC)", "value": 506.5}, {"measurement": "Area under the dose-response curve (AUC) WAGA Replicate 3", "setting": "WAGA cells (VP-MCC)", "value": 435.9}, {"measurement": "WAGA_AUC", "setting": "WAGA cells (VP-MCC)", "value": 128.39}, {"measurement": "Control-MCC", "setting": "[1]", "value": 150.329}, {"measurement": "HEK293T_AUC", "setting": "HEK293T cells", "value": 497.019}, {"measurement": "Control_Avg_AUC", "setting": "[2]", "value": 477.9}, {"measurement": "Area under the dose-response curve (AUC) MKL-2 Replicate 1", "setting": "MKL-2 cells (VP-MCC)", "value": 465.6}, {"measurement": "Area under the dose-response curve (AUC) MKL-2 Replicate 2", "setting": "MKL-2 cells (VP-MCC)", "value": 447.9}, {"measurement": "Area under the dose-response curve (AUC) MKL-2 Replicate 3", "setting": "MKL-2 cells (VP-MCC)", "value": 414.0}, {"measurement": "MKL2_AUC", "setting": "MKL-2 cells (VP-MCC)", "value": 290.674}, {"measurement": "Control-VP-MCC", "setting": "[3]", "value": 283.207}, {"measurement": "VP-MCC_Avg_AUC", "setting": "[3]", "value": 194.692}, {"measurement": "CRL7250_AUC", "setting": "CRL-7250 cells", "value": 483.042}, {"measurement": "MCC_Avg_AUC", "setting": "[4]", "value": 327.57}, {"measurement": "HACAT_AUC", "setting": "HACAT cells", "value": 457.965}, {"measurement": "NIH3T3_AUC", "setting": "NIH-3T3 cells", "value": 473.572}, {"measurement": "Area under the dose-response curve (AUC) MKL-1 Replicate 1", "setting": "MKL-1 cells (VP-MCC)", "value": 459.9}, {"measurement": "Area under the dose-response curve (AUC) MKL-1 Replicate 2", "setting": "MKL-1 cells (VP-MCC)", "value": 477.0}, {"measurement": "Area under the dose-response curve (AUC) MKL-1 Replicate 3", "setting": "MKL-1 cells (VP-MCC)", "value": 426.1}, {"measurement": "MKL1_AUC", "setting": "MKL-1 cells (VP-MCC)", "value": 165.013}, {"measurement": "Area under the dose-response curve (AUC) MCC26 Replicate 1", "setting": "MCC26 cells (VN-MCC)", "value": 419.4}, {"measurement": "Area under the dose-response curve (AUC) MCC26 Replicate 2", "setting": "MCC26 cells (VN-MCC)", "value": 420.5}, {"measurement": "Area under the dose-response curve (AUC) MCC26 Replicate 3", "setting": "MCC26 cells (VN-MCC)", "value": 426.9}, {"measurement": "MCC26_AUC", "setting": "MCC26 cells (VN-MCC)", "value": 462.009}, {"measurement": "Control-VN-MCC", "setting": "[5]", "value": 17.4511}, {"measurement": "VN-MCC_Avg_AUC", "setting": "[5]", "value": 460.449}]}, {"smiles": "OCCN1CCN(CCCN2c3ccccc3Sc3ccc(C(F)(F)F)cc32)CC1", "note": "[Fluphenazine]", "values": [{"measurement": "UISO_AUC", "setting": "UISO cells (VN-MCC); NPC library, qHTS dose-response AUC, UISO", "value": 423.342}, {"measurement": "MCC13_AUC", "setting": "MCC13 cells (VN-MCC); NPC library, qHTS dose-response AUC, MCC13", "value": 444.309}, {"measurement": "WAGA_AUC", "setting": "WAGA cells (VP-MCC); NPC library, qHTS dose-response AUC, WAGA", "value": 435.377}, {"measurement": "Control-MCC", "setting": "[1]; NPC library, therapeutic window: Control avg AUC minus MCC avg AUC", "value": 46.1748}, {"measurement": "HEK293T_AUC", "setting": "HEK293T cells; NPC library, qHTS dose-response AUC, HEK293T control", "value": 438.571}, {"measurement": "Control_Avg_AUC", "setting": "[2]; NPC library, mean AUC of control cell lines", "value": 473.361}, {"measurement": "MKL2_AUC", "setting": "MKL-2 cells (VP-MCC); NPC library, qHTS dose-response AUC, MKL2", "value": 399.652}, {"measurement": "VP-MCC_Avg_AUC", "setting": "[3]; NPC library, mean AUC of VP-MCC cell lines", "value": 423.354}, {"measurement": "Control-VP-MCC", "setting": "[3]; NPC library, therapeutic window: Control avg AUC minus VP-MCC avg AUC", "value": 50.0066}, {"measurement": "CRL7250_AUC", "setting": "CRL-7250 cells; NPC library, qHTS dose-response AUC, CRL7250 control", "value": 486.675}, {"measurement": "MCC_Avg_AUC", "setting": "[4]; NPC library, mean AUC of six MCC cell lines", "value": 427.186}, {"measurement": "HACAT_AUC", "setting": "HACAT cells; NPC library, qHTS dose-response AUC, HACAT control", "value": 491.426}, {"measurement": "NIH3T3_AUC", "setting": "NIH-3T3 cells; NPC library, qHTS dose-response AUC, NIH3T3 control", "value": 476.772}, {"measurement": "MKL1_AUC", "setting": "MKL-1 cells (VP-MCC); NPC library, qHTS dose-response AUC, MKL1", "value": 435.034}, {"measurement": "MCC26_AUC", "setting": "MCC26 cells (VN-MCC); NPC library, qHTS dose-response AUC, MCC26", "value": 425.402}, {"measurement": "VN-MCC_Avg_AUC", "setting": "[5]; NPC library, mean AUC of VN-MCC cell lines", "value": 431.018}, {"measurement": "Control-VN-MCC", "setting": "[5]; NPC library, therapeutic window: Control avg AUC minus VN-MCC avg AUC", "value": 42.343}]}, {"smiles": "COc1cc(NC(C)CCCN)c2ncccc2c1", "note": "(stereo not drawn) [Primaquine diphosphate]", "values": [{"measurement": "UISO_AUC", "setting": "UISO cells (VN-MCC)", "value": 458.954}, {"measurement": "MCC13_AUC", "setting": "MCC13 cells (VN-MCC)", "value": 448.24}, {"measurement": "WAGA_AUC", "setting": "WAGA cells (VP-MCC)", "value": 404.704}, {"measurement": "Control-MCC", "setting": "[1]", "value": 40.202}, {"measurement": "HEK293T_AUC", "setting": "HEK293T cells", "value": 455.709}, {"measurement": "Control_Avg_AUC", "setting": "[2]", "value": 479.001}, {"measurement": "MKL2_AUC", "setting": "MKL-2 cells (VP-MCC)", "value": 418.75}, {"measurement": "Control-VP-MCC", "setting": "[3]", "value": 69.0896}, {"measurement": "VP-MCC_Avg_AUC", "setting": "[3]", "value": 409.912}, {"measurement": "CRL7250_AUC", "setting": "CRL-7250 cells", "value": 485.915}, {"measurement": "MCC_Avg_AUC", "setting": "[4]", "value": 438.799}, {"measurement": "HACAT_AUC", "setting": "HACAT cells", "value": 484.209}, {"measurement": "NIH3T3_AUC", "setting": "NIH-3T3 cells", "value": 490.172}, {"measurement": "MKL1_AUC", "setting": "MKL-1 cells (VP-MCC)", "value": 406.282}, {"measurement": "MCC26_AUC", "setting": "MCC26 cells (VN-MCC)", "value": 495.867}, {"measurement": "Control-VN-MCC", "setting": "[5]", "value": 11.3144}, {"measurement": "VN-MCC_Avg_AUC", "setting": "[5]", "value": 467.687}]}]}
